From the supplement of paper PMC10307832

How the values were obtained:
Assay in all cases: relative viability (nuclei count vs DMSO), 5 days (fraction); higher = more cells survive
[1] = compound: O=S(=O)(c1ccccc1)N(CC(F)(F)F)c1ccc(C(O)(C(F)(F)F)C(F)(F)F)cc1 + CS(=O)(=O)N1CCN(Cc2cc3nc(-c4cccc5[nH]ncc45)nc(N4CCOCC4)c3s2)CC1 [Pictilisib] (partner 1 µM)
Outline: (§1)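 One day after seeding in 1536-well plates, lung cancer cell lines were dosed by pin tool. Dosing was either single-drug or a fixed anchor-drug dose plus five library-drug doses (not always all listed) in √10 steps. After 5 days, nuclei were stained in one fix-and-stain step and counted on 4× images, and relative viability is the nuclei count of treated wells over that of vehicle wells, given as the median of duplicate plates.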

[2] = compound: C1=CC2=C(C=CC(=C2)C=C3C(=O)NC(=NCC4=CC=CS4)S3)N=C1 [RO-3306] + O=C(CCCCCCC(=O)Nc1ccccc1)NO [Vorinostat] (partner 1 µM)
Outline: as §1

[3] = compound: C1=CC2=C(C=CC(=C2)C=C3C(=O)NC(=NCC4=CC=CS4)S3)N=C1 [RO-3306] + CC(C)C[C@H](NC(=O)[C@H](Cc1ccccc1)NC(=O)c1cnccn1)B(O)O [Bortezomib] (partner 0.002 µM)
Outline: as §1

[4] = compound: O=S(=O)(c1ccccc1)N(CC(F)(F)F)c1ccc(C(O)(C(F)(F)F)C(F)(F)F)cc1 + NC(=O)Nc1cc(-c2cccc(F)c2)sc1C(=O)N[C@H]1CCCNC1 [AZD7762] (partner 0.2 µM)
Outline: as §1

Row | Cell Line | relative viability ([1]; first compound 0.8 µM) | relative viability ([1]; first compound 2.53 µM) | relative viability ([1]; first compound 8 µM) | relative viability ([2]; first compound 0.01 µM) | relative viability ([2]; first compound 0.03162 µM) | relative viability ([2]; first compound 0.1 µM) | relative viability ([2]; first compound 0.3162 µM) | relative viability ([2]; first compound 1 µM) | relative viability ([3]; first compound 0.01 µM) | relative viability ([3]; first compound 0.03162 µM) | relative viability ([3]; first compound 0.1 µM) | relative viability ([3]; first compound 0.3162 µM) | relative viability ([3]; first compound 1 µM) | relative viability ([4]; first compound 0.8 µM) | relative viability ([4]; first compound 2.53 µM) | relative viability ([4]; first compound 8 µM)
1 | NCI-H2009 | 0.814 | 0.751 | 0.783 | 0.797 | 0.739 | 0.677 | 0.81 | 0.712 | 0.994 | 0.82 | 1 | 1.06 | 1 |  |  | 
2 | NCI-H1915 | 0.965 | 1.1 | 1.13 | 0.577 | 0.564 | 0.505 | 0.49 | 0.505 | 1.07 | 0.895 | 1.09 | 1.01 | 0.488 | 0.712 | 0.731 | 0.682
3 | EMC-BAC-2 | 0.626 | 0.561 | 0.634 | 0.417 | 0.354 | 0.351 | 0.534 | 0.161 | 1.21 | 0.912 | 1.11 | 1.06 | 1.01 | 0.486 | 1.09 | 1.05
4 | Calu-6 | 0.839 | 0.851 | 0.691 |  |  |  |  |  | 1.07 | 1.06 | 1.05 | 0.995 | 1.01 |  |  | 
5 | NCI-H2126 | 0.489 | 0.513 | 0.5 | 0.747 | 0.679 | 0.812 | 0.879 | 0.733 | 1.14 | 1.18 | 1.12 | 1.05 | 1 | 1.19 | 1.1 | 0.999
6 | NCI-H596 | 0.353 | 0.342 | 0.335 | 0.589 | 0.512 | 0.533 | 0.726 | 0.713 | 0.939 | 0.917 | 1.18 | 0.812 | 0.962 | 1.04 | 0.946 | 0.933
7 | SW 900 |  |  |  | 0.574 | 0.272 | 0.462 | 0.535 | 0.34 |  |  |  |  |  | 0.609 | 0.53 | 0.709
8 | NCI-H1650 | 0.69 | 0.588 | 0.534 | 0.648 | 0.545 | 0.472 | 0.558 | 0.613 | 0.204 | 0.184 | 0.181 | 0.192 | 0.185 |  |  | 
9 | NCI-H2342 |  |  |  | 0.691 | 0.687 | 0.735 | 0.751 | 0.76 |  |  |  |  |  | 0.527 | 0.559 | 0.477
10 | NCI-H1793 | 0.366 | 0.344 | 0.277 | 0.985 |  | 0.58 | 0.701 | 0.721 |  |  |  |  |  | 0.409 | 0.426 | 0.246
11 | NCI-H1944 | 0.3 | 0.341 | 0.357 | 0.595 | 0.566 | 0.588 | 0.562 | 0.509 |  |  |  |  |  | 0.546 | 0.501 | 0.581
12 | COR-L 105 | 0.44 | 0.397 | 0.418 | 0.779 | 0.773 | 0.77 | 0.759 | 0.751 | 0.792 | 0.718 | 0.777 | 0.822 | 0.622 |  |  | 
13 | NCI-H1648 |  |  |  | 0.348 |  | 0.291 | 0.408 | 0.351 |  |  |  |  |  | 0.694 | 0.505 | 0.707
14 | NCI-H522 |  |  |  | 0.93 | 0.792 | 0.98 | 0.959 | 0.801 |  |  |  |  |  | 1.13 | 0.824 | 0.859
15 | NCI-H2228 | 0.414 | 0.366 | 0.26 | 0.648 | 0.737 | 0.615 | 0.612 | 0.368 | 0.937 | 0.47 | 0.917 | 0.893 | 0.636 |  |  | 
16 | EBC-1 | 0.286 | 0.266 | 0.284 |  |  |  |  |  | 0.616 | 0.5 | 0.501 | 0.529 | 0.572 |  |  | 
17 | NCI-H1792 | 0.191 | 0.184 | 0.165 |  |  |  |  |  | 1.17 |  | 0.95 | 0.991 | 0.538 | 0.841 | 0.616 | 0.441
18 | A549 | 0.609 | 0.473 | 0.567 |  |  |  |  |  |  |  |  |  |  |  |  | 
19 | NCI-H520 | 0.31 | 0.258 | 0.387 | 0.779 | 0.589 | 0.676 | 0.693 | 0.664 | 0.802 | 0.369 | 0.5 | 0.582 | 0.435 |  |  | 
20 | NCI-H1703 | 0.253 | 0.211 | 0.218 |  |  |  |  |  | 0.646 | 0.261 | 0.349 | 0.203 | 0.289 | 0.132 | 0.119 | 0.132
21 | IA-LM | 0.355 | 0.305 | 0.524 | 1.09 | 0.519 | 0.973 | 0.947 | 0.749 | 0.86 | 0.8 | 0.745 | 0.6 | 0.969 |  |  | 
22 | NCI-H2023 | 0.183 | 0.221 | 0.193 | 0.684 | 0.524 | 0.651 | 0.806 | 0.5 | 1.01 | 0.795 | 0.979 | 1.13 | 1.07 |  |  | 
23 | NCI-H1395 | 0.569 | 0.562 | 0.635 | 0.738 | 0.649 | 0.579 | 0.689 | 0.629 |  |  |  |  |  | 0.319 | 0.416 | 0.429
24 | SK-MES-1 | 0.25 | 0.235 | 0.271 | 1.35 | 1.12 | 1.12 | 1.32 | 1.08 |  |  |  |  |  |  |  | 
25 | NCI-H661 | 0.389 | 0.398 | 0.427 | 0.875 | 0.727 | 0.801 | 0.773 | 0.807 | 0.817 | 0.738 | 0.84 | 0.829 | 0.935 |  |  | 
26 | NCI-H1563 | 0.734 | 0.655 | 0.581 |  |  |  |  |  | 0.921 | 0.75 | 0.787 | 0.939 | 0.753 |  |  | 
27 | SK-LU-1 | 0.531 | 0.454 | 0.594 | 0.854 | 0.711 | 0.786 | 0.786 | 0.605 | 0.767 | 0.932 | 1.08 | 1.34 | 0.853 |  |  | 
28 | COR-L23 | 1.23 | 0.796 | 0.901 | 0.51 | 0.412 | 0.489 | 0.394 | 0.344 | 1.03 |  | 1.1 | 1.02 | 0.772 |  |  | 
